Source: PubChem BioAssay (NCI)
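Interpolation was linear, between the two tested concentrations surrounding the appropriate level; five concentrations were tested over 48 hours in 96-well plates. GI50 = concentration required for 50% inhibition of growth. TGI denotes the concentration required for complete inhibition of growth.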

Columns and labels:
Assay in all cases: NCI anticancer screen, dose series, 48 h
[1] = tested on: HCC-2998 colon
[2] = tested on: HCT-116 colon
[3] = tested on: KM12 colon
[4] = tested on: NCI-H522 lung
[5] = tested on: SF-295 CNS
[6] = tested on: SK-MEL-2 melanoma
[7] = tested on: SR leukemia
[8] = tested on: UACC-62 melanoma
[9] = tested on: M14 melanoma
[10] = tested on: SNB-75 CNS

SMILES | TGI [1] | TGI [2] | TGI [3] | TGI [4] | TGI [5] | TGI [6] | TGI [7] | TGI [8] | TGI [9] | TGI [10] | GI50 [2]
COc1cc(CNc2nc3c(NC(C)=O)cc(C(F)(F)F)cc3nc2-c2ccccc2)cc(OC)c1OC | > 100 µM | > 100 µM | > 100 µM | > 100 µM | > 100 µM | > 100 µM | > 100 µM | > 100 µM |  |  | 
CCN(CCCl)c1cc(CN(C)C)cc(NC(=O)c2ccc(C(=O)Nc3cccc(N(CCCl)NN)c3)cc2)c1 | 0.298 µM | 10.1 µM | 0.329 µM |  | 12.5 µM | 0.181 µM | > 100 µM | 0.324 µM | 0.294 µM | 0.775 µM | 
CN(Cc1ccccc1)C(=S)S | > 100 µM | 39.6 µM | > 100 µM | > 100 µM | > 100 µM | > 100 µM | 59.7 µM | > 100 µM | 72.6 µM | > 100 µM | 
CCOC(=O)CCC(C(=O)OCC)n1nnc2cc(Nc3c(C)[n+]([O-])c4cc(Cl)ccc4[n+]3[O-])ccc21 (stereo not given) |  | > 100 µM | > 100 µM | > 100 µM | > 100 µM | > 100 µM |  | > 100 µM | > 100 µM | > 100 µM | 
NCC1OC(OC2C(N)CC(N)C(O)C2OC2OC(CO)C(O)C2O)C(N)C(O)C1O (stereo not given) | > 100 µM | > 100 µM | > 100 µM | > 100 µM | > 100 µM | > 100 µM | > 50 µM | > 100 µM | > 100 µM | > 100 µM | > 100 µM
N=C(N)c1ccc(N=Nc2c(O)c(C(=O)Nc3ccccc3)cc3ccccc23)cc1 | > 59.7 µM | 12.5 µM | 29.9 µM | 34.5 µM | > 100 µM | > 100 µM | > 75.8 µM | > 100 µM | > 100 µM | 52.2 µM | 
C/C(=C\C(=O)O)C(=O)N(C)c1ccccc1I | > 100 µM | > 100 µM | > 100 µM |  | > 100 µM | > 100 µM | > 100 µM | > 100 µM | > 100 µM | > 100 µM | 
CN(CC(=O)O)c1ncc2c(n1)-c1ccccc1CC2 |  | > 100 µM | > 100 µM | > 100 µM | > 100 µM | > 100 µM | > 100 µM | > 100 µM | > 100 µM | > 100 µM | 
c1csc(-c2cc(-c3ccsc3)cs2)c1 | > 100 µM | > 100 µM | > 100 µM |  | > 100 µM | > 100 µM | > 100 µM | > 100 µM | > 100 µM | > 100 µM | 
O=C(Nc1nnc(-c2ccccc2)o1)C(SC(=S)N1CCCC1)c1ccccc1 (stereo not given) |  | 79.5 µM | > 100 µM | 77.8 µM | > 100 µM | > 100 µM | > 100 µM |  | > 100 µM | > 100 µM | 
Cc1cc(C)c(C2=NO[C@@H]3[C@H]2C(=O)C=C2N(Cc4ccccc4)CCO[C@@]23O)c(C)c1 | > 100 µM | > 100 µM | > 100 µM | > 100 µM | > 100 µM | > 100 µM |  | > 100 µM |  | > 100 µM | 
COc1cc(C2C3=C(NC(=O)C2C#N)c2ccc4ccccc4c2OCC3)cc(OC)c1OC (stereo not given) | 65.2 µM | 29.1 µM | > 100 µM | > 100 µM | > 100 µM | 59.4 µM |  |  | > 100 µM | 34.5 µM | 
CC1=NN(c2cc(Cl)c(S(=O)(=O)O)cc2Cl)C2(C1)C(Cl)C(=O)N2c1nc2ccccc2s1 (stereo not given) | > 100 µM | > 100 µM | > 100 µM | 71.2 µM |  | > 100 µM | > 100 µM | > 100 µM | > 100 µM | > 100 µM | 
CCCCCCCCCCCCCCCCOC[C@H](COC(c1ccccc1)(c1ccccc1)c1ccccc1)O[P+](=S)OC (stereo not given in full) |  | > 100 µM | > 100 µM | > 100 µM | > 100 µM | > 100 µM | > 100 µM | > 100 µM | > 100 µM | > 100 µM | 
CC1CC(C)(C)CC(OCCN2CCCCC2)(c2ccccc2)C1 (stereo not given) |  | 18.9 µM | 21.4 µM | 21.6 µM | 22.9 µM | 33.4 µM | 20.4 µM | 29.6 µM | 14.4 µM | 28.8 µM | 
CN1CCN(Cc2ccc(C(=S)Nc3ccccc3)s2)CC1 | > 100 µM | > 100 µM | > 100 µM | > 100 µM | > 100 µM | > 100 µM | 73 µM | 41.3 µM | 31.9 µM |  | 
CCOC(=O)/C=C(/OCC)[C@@H]1C(C(=O)c2ccc(Cl)cc2)[C@@H]1/C(=C\C(=O)OCC)OCC (stereo not given in full) |  | > 100 µM | > 51.3 µM | > 59.2 µM | > 88.9 µM | > 100 µM | > 100 µM | > 100 µM | > 100 µM | > 100 µM | 
C[C@]12CC[C@H]3[C@@H](CCC4=C/C(=N/OCCN5CCCCC5)CC[C@@]43C)[C@@H]1CC[C@@H]2O | 27.4 µM | > 100 µM | 21.8 µM | 36.1 µM | 29.3 µM | 29.8 µM |  |  | 23.8 µM | 22.4 µM | 
O=C(CN1CCCC1)Nc1ccc2c(c1)C1Oc3ccccc3CC1CO2 (stereo not given) | 34.9 µM | > 100 µM | > 100 µM | 96.5 µM | 39.7 µM | 50 µM | 89.6 µM | 33 µM | 36.4 µM |  | 
Cn1c(COC(=O)NC2CCCCC2)c(COC(=O)NC2CCCCC2)c2ccc3ccccc3c21 |  | > 100 µM | > 100 µM | 31.5 µM | > 100 µM | 93.4 µM | > 100 µM | > 100 µM | > 100 µM | 78.9 µM | 
O=c1[nH]c(NCCCCCO)nc2nc[nH]c12 | > 100 µM | > 100 µM | > 100 µM | > 100 µM |  | > 100 µM | > 100 µM | > 100 µM | > 100 µM | > 100 µM | 
N#CC(c1cc(Cl)ncn1)c1nc2cc(C(F)(F)F)ccc2s1 (stereo not given) |  | 8.9 µM | 18.7 µM | 3.61 µM | 29.2 µM |  |  |  | 18.7 µM | 25.4 µM | 
N#Cc1nc(-c2ccsc2)oc1N |  | > 100 µM | > 100 µM |  |  | > 100 µM | > 100 µM | > 100 µM | > 100 µM | > 100 µM | 
